{"source": "patent US11965039B2", "about": "“Compstatin analogues and their medical uses” (priority 2018, dated 2024)", "key": {"[1]": {"test_system": "classical complement pathway", "assay": "In vitro haemolysis assay (inhibition of classical complement pathway)", "assay_type": "cell-based, human", "conditions": "human serum, sensitized sheep red blood cells; Table 3, given as upper bounds; read-out: IC50, inhibition of hemolysis", "method_in_brief": "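Compound dilutions preincubated 15 min at room temperature with diluted human serum (titrated per batch for 70-90% maximal haemolysis), then antibody-sensitized sheep RBC (10^7/well) added for 30 min at 37 °C in Tris/casein buffer, pH 7.4. Stopped with EDTA; haemolysis read at 405 nm; IC50 by 4PL fit.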"}, "[2]": {"assay": "Solubility test at 10 mg/mL (visual inspection and light scattering)", "assay_type": "physicochemical", "conditions": "for Solubility, Condition 1: Acetate pH 4; for Solubility, Condition 2: Acetate pH 5; for Solubility, Condition 3: Phosphate pH 6; for Solubility, Condition 4: Phosphate pH 7; for Solubility, Condition 5: Phosphate pH 7.5"}}, "note": "Positions of bridges follow the written chain, without caps; N, C: chain ends. Non-standard residues stand in square brackets, D forms with d. Residues, ends and D or L forms follow the SMILES beside them. Trp(1-Me) = Cn1cc(C[C@H](N)C(=O)O)c2ccccc21; 1Nal = N[C@@H](Cc1cccc2ccccc12)C(=O)O; 2Nal = N[C@@H](Cc1ccc2ccccc2c1)C(=O)O; Sar = CNCC(=O)O", "data": [{"smiles": "CC[C@H](C)[C@H](NC(C)=O)C(=O)N[C@H]1CSSC[C@@H](C(=O)N[C@H](C(=O)NCC(=O)N[C@@H](C)C(=O)N[C@@H](CCC(=O)O)C(=O)N[C@@H](CO)C(N)=O)[C@@H](C)O)NC(=O)[C@H](CCCNC(=N)N)NC(=O)[C@H](Cc2c[nH]cn2)NC(=O)[C@H](CCC(=O)O)NC(=O)CNC(=O)[C@H](Cc2c[nH]c3ccccc23)NC(=O)[C@H](CC(=O)O)NC(=O)[C@H](CCC(N)=O)NC(=O)[C@H](Cc2ccc3ccccc3c2)NC(=O)[C@H]([C@@H](C)CC)NC1=O", "note": "[Compound 52] (Ac-ICI[2Nal]QDWGEHRCTGAES-NH2; disulfide 2-12)", "values": [{"measurement": "IC50", "setting": "[1]", "result": "< 0.1", "unit": "µM"}, {"measurement": "Solubility, Condition 1", "setting": "[2]", "result": "− (“−” denotes lack of solubility at the given condition, as UV absorbance at 340 nm exceeds 0.1 AU and/or it is visibly turbid or contains particles)"}, {"measurement": "Solubility, Condition 2", "setting": "[2]", "result": "− (“−” denotes lack of solubility at the given condition, as UV absorbance at 340 nm exceeds 0.1 AU and/or it is visibly turbid or contains particles)"}, {"measurement": "Solubility, Condition 3", "setting": "[2]", "result": "+ (“+” denotes solubility at the given condition, as determined by UV absorbance being less than 0.1 AU at 340 nm and the sample being clear when manually inspected)"}, {"measurement": "Solubility, Condition 4", "setting": "[2]", "result": "+ (“+” denotes solubility at the given condition, as determined by UV absorbance being less than 0.1 AU at 340 nm and the sample being clear when manually inspected)"}, {"measurement": "Solubility, Condition 5", "setting": "[2]", "result": "+ (“+” denotes solubility at the given condition, as determined by UV absorbance being less than 0.1 AU at 340 nm and the sample being clear when manually inspected)"}]}, {"smiles": "CC[C@H](C)[C@@H]1NC(=O)[C@@H](NC(=O)[C@H](Cc2ccccc2)NC(=O)[C@H](C)NC(=O)[C@H](CO)NC(=O)CNC(=O)[C@H](CCC(=O)O)NC(C)=O)CSSC[C@@H](C(=O)N(C)CC(=O)N[C@@H](CCC(=O)O)C(N)=O)NC(=O)[C@H](CCCNC(=N)N)NC(=O)[C@H](Cc2c[nH]cn2)NC(=O)[C@H](CCC(=O)O)NC(=O)CNC(=O)[C@H](Cc2c[nH]c3ccccc23)NC(=O)[C@H](CC(=O)O)NC(=O)[C@H](CCC(N)=O)NC(=O)[C@H](Cc2cn(C)c3ccccc23)NC1=O", "note": "[Compound 53] (Ac-EGSAFCI[Trp(1-Me)]QDWGEHRC[Sar]E-NH2; disulfide 6-16)", "values": [{"measurement": "IC50", "setting": "[1]", "result": "< 0.1", "unit": "µM"}, {"measurement": "Solubility, Condition 1", "setting": "[2]", "result": "− (“−” denotes lack of solubility at the given condition, as UV absorbance at 340 nm exceeds 0.1 AU and/or it is visibly turbid or contains particles)"}, {"measurement": "Solubility, Condition 2", "setting": "[2]", "result": "− (“−” denotes lack of solubility at the given condition, as UV absorbance at 340 nm exceeds 0.1 AU and/or it is visibly turbid or contains particles)"}, {"measurement": "Solubility, Condition 3", "setting": "[2]", "result": "+ (“+” denotes solubility at the given condition, as determined by UV absorbance being less than 0.1 AU at 340 nm and the sample being clear when manually inspected)"}, {"measurement": "Solubility, Condition 4", "setting": "[2]", "result": "+ (“+” denotes solubility at the given condition, as determined by UV absorbance being less than 0.1 AU at 340 nm and the sample being clear when manually inspected)"}, {"measurement": "Solubility, Condition 5", "setting": "[2]", "result": "+ (“+” denotes solubility at the given condition, as determined by UV absorbance being less than 0.1 AU at 340 nm and the sample being clear when manually inspected)"}]}, {"smiles": "CC[C@H](C)[C@H](NC(=O)[C@H](C)NC(=O)[C@H](CO)NC(=O)CNC(=O)[C@H](CCC(=O)O)NC(C)=O)C(=O)N[C@H]1CSSC[C@@H](C(=O)N[C@H](C(=O)N[C@@H](CCC(=O)O)C(N)=O)[C@@H](C)O)NC(=O)[C@H](CCCNC(=N)N)NC(=O)[C@H](Cc2c[nH]cn2)NC(=O)[C@H](CCC(=O)O)NC(=O)CNC(=O)[C@H](Cc2c[nH]c3ccccc23)NC(=O)[C@H](CC(=O)O)NC(=O)[C@H](CCC(N)=O)NC(=O)[C@H](Cc2c[nH]c3ccccc23)NC(=O)[C@H]([C@@H](C)CC)NC1=O", "note": "[Compound 55] (Ac-EGSAICIWQDWGEHRCTE-NH2; disulfide 6-16)", "values": [{"measurement": "IC50", "setting": "[1]", "result": "< 0.25", "unit": "µM"}, {"measurement": "Solubility, Condition 1", "setting": "[2]", "result": "− (“−” denotes lack of solubility at the given condition, as UV absorbance at 340 nm exceeds 0.1 AU and/or it is visibly turbid or contains particles)"}, {"measurement": "Solubility, Condition 2", "setting": "[2]", "result": "− (“−” denotes lack of solubility at the given condition, as UV absorbance at 340 nm exceeds 0.1 AU and/or it is visibly turbid or contains particles)"}, {"measurement": "Solubility, Condition 3", "setting": "[2]", "result": "+ (“+” denotes solubility at the given condition, as determined by UV absorbance being less than 0.1 AU at 340 nm and the sample being clear when manually inspected)"}, {"measurement": "Solubility, Condition 4", "setting": "[2]", "result": "+ (“+” denotes solubility at the given condition, as determined by UV absorbance being less than 0.1 AU at 340 nm and the sample being clear when manually inspected)"}, {"measurement": "Solubility, Condition 5", "setting": "[2]", "result": "+ (“+” denotes solubility at the given condition, as determined by UV absorbance being less than 0.1 AU at 340 nm and the sample being clear when manually inspected)"}]}, {"smiles": "CC[C@H](C)[C@@H]1NC(=O)[C@@H](NC(=O)[C@H](Cc2ccccc2)NC(=O)[C@H](C)NC(=O)[C@H](CO)NC(=O)CNC(=O)[C@H](CCC(=O)O)NC(C)=O)CSSC[C@@H](C(=O)N[C@H](C(=O)N[C@@H](CCC(=O)O)C(N)=O)[C@@H](C)O)NC(=O)[C@H](CCCNC(=N)N)NC(=O)[C@H](Cc2c[nH]cn2)NC(=O)[C@H](CCC(=O)O)NC(=O)CNC(=O)[C@H](Cc2c[nH]c3ccccc23)NC(=O)[C@H](CC(=O)O)NC(=O)[C@H](CCC(N)=O)NC(=O)[C@H](Cc2cccc3ccccc23)NC1=O", "note": "[Compound 56] (Ac-EGSAFCI[1Nal]QDWGEHRCTE-NH2; disulfide 6-16)", "values": [{"measurement": "IC50", "setting": "[1]", "result": "< 0.1", "unit": "µM"}, {"measurement": "Solubility, Condition 1", "setting": "[2]", "result": "− (“−” denotes lack of solubility at the given condition, as UV absorbance at 340 nm exceeds 0.1 AU and/or it is visibly turbid or contains particles)"}, {"measurement": "Solubility, Condition 2", "setting": "[2]", "result": "− (“−” denotes lack of solubility at the given condition, as UV absorbance at 340 nm exceeds 0.1 AU and/or it is visibly turbid or contains particles)"}, {"measurement": "Solubility, Condition 3", "setting": "[2]", "result": "+ (“+” denotes solubility at the given condition, as determined by UV absorbance being less than 0.1 AU at 340 nm and the sample being clear when manually inspected)"}, {"measurement": "Solubility, Condition 4", "setting": "[2]", "result": "+ (“+” denotes solubility at the given condition, as determined by UV absorbance being less than 0.1 AU at 340 nm and the sample being clear when manually inspected)"}, {"measurement": "Solubility, Condition 5", "setting": "[2]", "result": "+ (“+” denotes solubility at the given condition, as determined by UV absorbance being less than 0.1 AU at 340 nm and the sample being clear when manually inspected)"}]}, {"smiles": "CC[C@H](C)[C@@H]1NC(=O)[C@@H](NC(=O)[C@H](Cc2ccccc2)NC(=O)[C@H](C)NC(=O)[C@H](CO)NC(=O)CNC(=O)[C@H](CCC(=O)O)NC(C)=O)CSSC[C@@H](C(=O)N[C@H](C(=O)N[C@@H](CCC(=O)O)C(N)=O)[C@@H](C)O)NC(=O)[C@H](CCCNC(=N)N)NC(=O)[C@H](Cc2c[nH]cn2)NC(=O)[C@H](CCC(=O)O)NC(=O)CNC(=O)[C@H](Cc2c[nH]c3ccccc23)NC(=O)[C@H](CC(=O)O)NC(=O)[C@H](CCC(N)=O)NC(=O)[C@H](Cc2cn(C)c3ccccc23)NC1=O", "note": "[Compound 57] (Ac-EGSAFCI[Trp(1-Me)]QDWGEHRCTE-NH2; disulfide 6-16)", "values": [{"measurement": "IC50", "setting": "[1]", "result": "< 0.1", "unit": "µM"}, {"measurement": "Solubility, Condition 1", "setting": "[2]", "result": "− (“−” denotes lack of solubility at the given condition, as UV absorbance at 340 nm exceeds 0.1 AU and/or it is visibly turbid or contains particles)"}, {"measurement": "Solubility, Condition 2", "setting": "[2]", "result": "− (“−” denotes lack of solubility at the given condition, as UV absorbance at 340 nm exceeds 0.1 AU and/or it is visibly turbid or contains particles)"}, {"measurement": "Solubility, Condition 3", "setting": "[2]", "result": "+ (“+” denotes solubility at the given condition, as determined by UV absorbance being less than 0.1 AU at 340 nm and the sample being clear when manually inspected)"}, {"measurement": "Solubility, Condition 4", "setting": "[2]", "result": "+ (“+” denotes solubility at the given condition, as determined by UV absorbance being less than 0.1 AU at 340 nm and the sample being clear when manually inspected)"}, {"measurement": "Solubility, Condition 5", "setting": "[2]", "result": "+ (“+” denotes solubility at the given condition, as determined by UV absorbance being less than 0.1 AU at 340 nm and the sample being clear when manually inspected)"}]}, {"smiles": "CC[C@H](C)[C@@H]1NC(=O)[C@@H](NC(=O)[C@H](Cc2ccccc2)NC(=O)[C@H](C)NC(=O)[C@H](CO)NC(=O)CNC(=O)[C@H](CCC(=O)O)NC(C)=O)CSSC[C@@H](C(=O)N[C@H](C(=O)N[C@@H](CCC(=O)O)C(N)=O)[C@@H](C)O)NC(=O)[C@H](CCCNC(=N)N)NC(=O)[C@H](Cc2c[nH]cn2)NC(=O)[C@H](CCC(=O)O)NC(=O)CNC(=O)[C@H](Cc2c[nH]c3ccccc23)NC(=O)[C@H](CC(=O)O)NC(=O)[C@H](CCC(N)=O)NC(=O)[C@H](Cc2ccc3ccccc3c2)NC1=O", "note": "[Compound 60] (Ac-EGSAFCI[2Nal]QDWGEHRCTE-NH2; disulfide 6-16)", "values": [{"measurement": "IC50", "setting": "[1]", "result": "< 0.1", "unit": "µM"}, {"measurement": "Solubility, Condition 1", "setting": "[2]", "result": "− (“−” denotes lack of solubility at the given condition, as UV absorbance at 340 nm exceeds 0.1 AU and/or it is visibly turbid or contains particles)"}, {"measurement": "Solubility, Condition 2", "setting": "[2]", "result": "− (“−” denotes lack of solubility at the given condition, as UV absorbance at 340 nm exceeds 0.1 AU and/or it is visibly turbid or contains particles)"}, {"measurement": "Solubility, Condition 3", "setting": "[2]", "result": "+ (“+” denotes solubility at the given condition, as determined by UV absorbance being less than 0.1 AU at 340 nm and the sample being clear when manually inspected)"}, {"measurement": "Solubility, Condition 4", "setting": "[2]", "result": "+ (“+” denotes solubility at the given condition, as determined by UV absorbance being less than 0.1 AU at 340 nm and the sample being clear when manually inspected)"}, {"measurement": "Solubility, Condition 5", "setting": "[2]", "result": "+ (“+” denotes solubility at the given condition, as determined by UV absorbance being less than 0.1 AU at 340 nm and the sample being clear when manually inspected)"}]}]}
